In patent publication US6749864B2, “Stabilized pharmaceutical composition” (Takeda Chemical Industries, Ltd., priority 1986, dated 2004):

What was measured:
[1] = Storage of granules of different benzimidazole compounds with heavy magnesium carbonate or lactose, changes in appearance (Experimental Example 2); type: physicochemical; design: key to Changes in appearance after 1 week at 50° C. and 75% RH: −: No changes; ++: Severely; details: for Changes in appearance after 1 week at 50° C. and 75% RH: granules as in Example 5; for stability of the pharmaceutical compositions of the invention: granules with heavy magnesium carbonate, 50° C. and 75% RH, 1 week
Source text: Granules were produced in the same manner as in Example 5 except that the compound (A), the compound (C), the compound (D), omeprazole or timoprazole was used instead of the compound (B). […] As a control to each composition, granules were also produced in the same manner except that lactose was used instead of heavy magnesium carbonate and stored under the same conditions.

[2] = Control: lactose instead of heavy magnesium carbonate
[3] = Invention: additive heavy magnesium carbonate

| Compound | melting point | Changes in appearance after 1 week at 50° C. and 75% RH [1, 2] | Changes in appearance after 1 week at 50° C. and 75% RH [1, 3] | stability of the pharmaceutical compositions of the invention [1] |
| --- | --- | --- | --- | --- |
| Cc1c(OCC(F)(F)C(F)(F)F)ccnc1C[S+]([O-])c1nc2ccccc2[nH]1 (stereo not shown) [Compound (A), 2-[[3-methyl-4-(2,2,3,3,3-pentafluoropropoxy)-2-pyridyl]methyl-sulfinyl]benzimidazole] | 161 to 163 °C (dec.) | ++ | − | stable |
| COc1ccc2nc([S+]([O-])Cc3ncc(C)c(OC)c3C)[nH]c2c1 (stereo not shown) [Omeprazole, 5-Methoxy-2-[(4-methoxy-3,5-dimethyl-2-pyridyl)methylsulfinyl]benzimidazole] |  | ++ | − | stable |
| [O-][S+](Cc1ccccn1)c1nc2ccccc2[nH]1 (stereo not shown) [Timoprazole, 2-[(2-Pyridyl)methylsulfinyl]benzimidazole] |  | ++ | − | stable |
